Where a name gives a salt, the structure may show the parent alone.
Test system: not given
Test: not given
Conditions: subjects with low HDL-C; cited from earlier work

Molecule	increase in the HDL-C level [%]	reduction of the CHD risk [%]
Cc1ccc(C)c(OCCCC(C)(C)C(=O)O)c1 [gemfibrozil]	6	22

Test system: not given
Test: not given
Conditions: following oral administration; cited from earlier work

Molecule	intestinal absorption
O=c1c(O)c(-c2ccc(O)c(O)c2)oc2cc(O)cc(O)c12 [quercetin]	less than 1%

Test system: ApoA-I mRNA
Test: Quantification of ApoA-I mRNA in HepG2 cells
Type: cell-based
Design: key: Active: An active compound is one that causes a >15% increase in ApoA-I mRNA at a concentration less than or equal to 100 uM
Conditions: concentration less than or equal to 100 uM
Experimental: In this example, ApoA-I mRNA in tissue culture cells was quantitated to measure the transcriptional up-regulation of ApoA-I when treated with a compound of the invention.
HepG2 cells (˜2×10^5 per well) were placed in a 24-well plate in ˜400 μL MEM, supplemented with 0.5% (v/v) FBS, 24 h before addition of the compound of interest. At time of harvesting, the spent media was removed from the HepG2 cells and immediately placed on ice (for immediate use) or at −80° C. (for future use) in ApoA-I and albumin ELISAs. The cells remaining in the plate wells were rinsed in 200 μL PBS. PBS was carefully removed to avoid removing any loosely attached cells.
Once the PBS was removed, 85 μL cell lysis solution was added the cells in each well and incubated for 5-10 min at room temperature, to allow for complete cell lysis and detachment. mRNA was then prepared using the “mRNA Catcher PLUS plate” from Invitrogen, according to the protocol supplied. […]
The eluted mRNA isolated was then used in a one-step real-time […] reaction, using components of the Ultra Sense Kit together with Applied Biosystems primer-probe mixes. Real-time PCR data was analyzed, using the Ct values, to determine the fold induction of each unknown sample, relative to the control (that is, relative to the control for each independent DMSO concentration). […]

Molecule	Effect on ApoA-I mRNA levels
4-(1-Oxo-1,2-dihydroisoquinolin-3)phenyl 2-amino-5-guanidinopentanoate trihydrochloride [Example 4]	Active

Test system: not given
Test: not given
Conditions: not given

Molecule	melting point
Cc1cc(C)c2c(=O)[nH]c(-c3cc(C)c(OCCO)c(C)c3)nc2c1 [Example 77, 2-(4-(2-hydroxyethoxy)-3,5-dimethylphenyl)-5,7-dimethylquinazolin-4(3H)-one]	259.6 to 261.2 °C
COc1cc2nc(-c3cc(C)c(OCC(N)=O)c(C)c3)[nH]c(=O)c2cc1OC [Example 55, 2-(4-(6,7-dimethoxy-4-oxo-3,4-dihydroquinazolin-2-yl)-2,6-dimethylphenoxy)acetamide]	354 to 356 °C
COc1cc(OC)c2c(=O)[nH]c(-c3cc(C)c(O)c(C)c3)cc2n1 (as salt: HCl) [Example 16, 7-(4-hydroxy-3,5-dimethylphenyl)-2,4-dimethoxy-1,6-naphthyridin-5(6H)-one]	> 324 °C
COc1cc(OC)c2c(=O)[nH]c(-c3cc(C(C)(C)C)c(O)c(C(C)(C)C)c3)nc2c1 [Example 28, 2-(3,5-di-tert-butyl-4-hydroxyphenyl)-5,7-dimethoxyquinazolin-4(3H)-one]	229.7 to 230.5 °C
CC(=O)Nc1ccc2nc(-c3cc(C)c(OCCO)c(C)c3)[nH]c(=O)c2c1 [Example 73, N-(2-(4-(2-hydroxyethoxy)-3,5-dimethylphenyl)-4-oxo-3,4-dihydroquinazolin-6-yl)acetamide]	> 300 °C
Cc1cc(-c2nc3ccccc3c(=O)[nH]2)cc(C)c1OCCO [Example 35, 2-(4-(2-hydroxyethoxy)-3,5-dimethylphenyl)quinazolin-4(3H)-one]	260 to 261 °C
COc1cc(OC)c2c(=O)[nH]c(-c3ccncc3)nc2c1 (as salt: hydrochloride) [Example 33, 5,7-dimethoxy-2-(pyridin-4-yl)quinazolin-4(3H)-one]	294 to 295 °C
COc1cc(OC)c2c(=O)[nH]c(-c3ccc(CN4CCOCC4)cc3)nc2c1 (as salt: hydrochloride) [Example 66, 5,7-dimethoxy-2-(4-(morpholinomethyl)phenyl)quinazolin-4(3H)-one]	206 to 208 °C (dec.)
COc1ccc(-c2nc3cc(OC)cc(OC)c3c(=O)[nH]2)cc1 [Example 30, 5,7-dimethoxy-2-(4-methoxyphenyl)quinazolin-4(3H)-one]	276 to 277 °C
O=c1[nH]c(-c2ccc3c(c2)OCCO3)nc2ccccc12 [Example 36, 2-(2,3-dihydrobenzo[b][1,4]dioxin-6-yl)quinazolin-4(3H)-one]	267 to 268 °C (dec.)
Cc1cc(-c2nc3ccc(CN4CCOCC4)cc3c(=O)[nH]2)cc(C)c1O (as salt: hydrochloride) [Example 62, 2-(4-hydroxy-3,5-dimethylphenyl)-6-(morpholinomethyl)quinazolin-4(3H)-one]	284 to 286 °C
COc1cc(OC)c2c(=O)[nH]c(-c3cc(C)c(OCC(=O)O)c(C)c3)nc2c1 [Example 64, 2-(4-(5,7-dimethoxy-4-oxo-3,4-dihydroquinazolin-2-yl)-2,6-dimethylphenoxy)acetic acid]	270 to 272 °C
Cc1cc(-c2cc3ccc(CN4CCOCC4)cc3c(=O)[nH]2)cc(C)c1O (as salt: hydrochloride) [Example 11, 3-(4-hydroxy-3,5-dimethylphenyl)-7-(morpholinomethyl)isoquinolin-1(2H)-one]	281 to 283 °C
COc1cc2nc(-c3ccc4c(c3)OCCO4)[nH]c(=O)c2cc1OC [Example 48, 2-(2,3-dihydrobenzo[b][1,4]dioxin-6-yl)-6,7-dimethoxyquinazolin-4(3H)-one]	316.4 to 318.2 °C
COc1cc(OC)c2c(=O)[nH]c(-c3cc(C)c(OC)c(C)c3)cc2n1 [Example 63, 2,4-dimethoxy-7-(4-methoxy-3,5-dimethylphenyl)-1,6-naphthyridin-5(6H)-one]	262 to 263 °C (dec.)
COc1cc2cc(-c3cc(C)c(O)c(C)c3)n(C)c(=O)c2c(OC)c1C [Example 17, 3-(4-hydroxy-3,5-dimethylphenyl)-6,8-dimethoxy-2,7-dimethylisoquinolin-1(2H)-one]	246 to 248 °C
COc1cc(OC)c2c(=O)[nH]c(-c3cccnc3)nc2c1 (as salt: hydrochloride) [Example 27, 5,7-dimethoxy-2-(pyridin-3-yl)quinazolin-4(3H)-one]	257 to 259 °C
COc1cc2nc(-c3ccc(N(C)C)c4ccccc34)[nH]c(=O)c2cc1OC [Example 44]	235.5 to 236.5 °C
Oc1ccc(-c2cc3ncccc3cn2)cc1 [Example 5, 4-(1,6-naphthyridin-7-yl)phenol]	219 to 221 °C
COc1cc(OC)c2c(=O)[nH]c(-c3ccc(CN4CCN(C)CC4)cc3)nc2c1 (as salt: hydrochloride) [Example 59, 5,7-dimethoxy-2-(4((4-methylpiperazin-1-yl)methyl)phenyl)quinazolin-4(3H)-one]	275 to 277 °C
O=C(O)COc1ccc(-c2nc3ccccc3c(=O)[nH]2)cc1 [Example 39, 2-(4-(4-oxo-3,4-dihydroquinazolin-2-yl)phenoxy)acetic acid]	285 to 287 °C
CN(C)c1ccc(-c2nc3ccccc3c(=O)[nH]2)c2ccccc12 [Example 40, 2-(4-(dimethylamino)naphthalen-1-yl)quinazolin-4(3H)-one]	224 to 226 °C
COc1cc2c(c(OC)c1)S(=O)(=O)NC(c1cc(C)c(O)c(C)c1)=C2 [Example 15, 6,8-dimethoxy-3-(4-hydroxy-3,5-dimethylphenyl)-2H-1,2-benzothiazine-1,1-dioxide]	246.6 to 247.4 °C
COc1cc(OC)c2c(=O)[nH]c(-c3cc(C)c(OCCN4CCOCC4)c(C)c3)nc2c1 (as salt: hydrochloride) [Example 21, 2-(3,5-dimethyl-4-(2-morpholinoethoxy)phenyl)-5,7-dimethoxyquinazolin-4(3H)-one]	185 to 187 °C
COc1cc(OC)c2c(=O)[nH]c(-c3ccc(O)c(CCO)c3)nc2c1 [Example 75, 2-(4-hydroxy-3-(2-hydroxyethyl)phenyl)-5,7-dimethoxyquinazolin-4(3H)-one]	249 to 250.3 °C
COc1cc2nc(-c3cc(C)c(OCCO)c(C)c3)[nH]c(=O)c2cc1OC [Example 58, 2-(4-(2-hydroxyethoxy)-3,5-dimethylphenyl)-6,7-dimethoxyquinazolin-4(3H)-one]	> 300 °C
Oc1ccc(-c2cc3ccccc3cn2)cc1 [Example 2, 4-lsoquinolin-3-yl-phenol]	218 to 219 °C
COc1cc(OC)c2c(=O)[nH]c(-c3ccc(OCC(=O)O)c(OC)c3)nc2c1 [Example 103, 2-(4-(5,7-dimethoxy-4-oxo-3,4-dihydroquinazolin-2-yl)2-methoxyphenoxy)acetic acid]	275 to 277 °C
COc1cc(OC)c2c(=O)[nH]c(-c3ccc(O)c(Cl)c3)nc2c1 [Example 32, 2-(3-chloro-4-hydroxyphenyl)-5,7-dimethoxyquinazolin-4(3H)-one]	279 to 281 °C
Cc1cc(-c2nc3ccccc3c(=O)[nH]2)cc(C)c1OCCN1CCOCC1 (as salt: hydrochloride) [Example 34, 2-(3,5-dimethyl-4-(2-morpholinoethoxy)phenyl)quinazolin-4(3H)-one]	300 to 302 °C

From patent publication US10532054B2, “Compounds for the prevention and treatment of cardiovascular diseases” (Resverlogix Corp., priority 2007, dated 2020)
